These are literature values, as cited in patent publication US20110171165A1 (priority 2008, published 2011).

Structures are written as SMILES.

The data set has as its target δ receptors (Cavia porcellus, UniProt A0A286XTF2). Conditions: read-out: affinity for δ receptors; guinea-pig brain membranes.

Chain of δ receptors (A0A286XTF2 1-366): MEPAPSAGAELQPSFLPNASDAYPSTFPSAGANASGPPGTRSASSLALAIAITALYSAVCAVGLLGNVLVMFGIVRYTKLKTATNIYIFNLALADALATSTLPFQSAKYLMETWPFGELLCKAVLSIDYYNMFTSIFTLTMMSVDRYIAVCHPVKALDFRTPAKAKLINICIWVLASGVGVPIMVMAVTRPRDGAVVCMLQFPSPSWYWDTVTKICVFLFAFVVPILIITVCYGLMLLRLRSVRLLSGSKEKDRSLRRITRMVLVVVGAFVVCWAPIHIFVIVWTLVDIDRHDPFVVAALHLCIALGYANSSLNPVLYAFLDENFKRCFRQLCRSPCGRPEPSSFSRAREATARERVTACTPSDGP

On to `CSCC[C@H](NC(=O)[C@H](Cc1ccccc1)NC(=O)CNC(=O)CNC(=O)[C@@H](N)Cc1ccc(O)cc1)C(=O)O` [OGF, Tyr-Gly-Gly-Phe-Met], for which the Ki is 0.9 nM.
